This passage reports EC50 results from US12139520B2 (priority 2020, dated 2024).

Numbered stars: 1 amine (or outer) side, 2 acyl side, 3 side chain; on linkers, the order of the positions; unused ones are H or OH. Bridge positions count the residues as written; N and C are the ends. Square brackets hold non-standard residues; d marks the D form. Peptide text beside a SMILES is read from it. * marks the point of attachment. C20 diacid = O=C(O)CCCCCCCCCCCCCCCCCCC(=O)*; γGlu = O=C(O)[C@H](CCC(=O)[*:2])N[*:1]; Hyp = O=C(O)[C@@H]1C[C@@H](O)CN1; Cit = NC(=O)NCCC[C@H](N)C(=O)O

Experiment [1] concerns the target T1, hAMY3 receptor (Homo sapiens, UniProt O60896+P30988).
T1 sequence (P30988 25-474): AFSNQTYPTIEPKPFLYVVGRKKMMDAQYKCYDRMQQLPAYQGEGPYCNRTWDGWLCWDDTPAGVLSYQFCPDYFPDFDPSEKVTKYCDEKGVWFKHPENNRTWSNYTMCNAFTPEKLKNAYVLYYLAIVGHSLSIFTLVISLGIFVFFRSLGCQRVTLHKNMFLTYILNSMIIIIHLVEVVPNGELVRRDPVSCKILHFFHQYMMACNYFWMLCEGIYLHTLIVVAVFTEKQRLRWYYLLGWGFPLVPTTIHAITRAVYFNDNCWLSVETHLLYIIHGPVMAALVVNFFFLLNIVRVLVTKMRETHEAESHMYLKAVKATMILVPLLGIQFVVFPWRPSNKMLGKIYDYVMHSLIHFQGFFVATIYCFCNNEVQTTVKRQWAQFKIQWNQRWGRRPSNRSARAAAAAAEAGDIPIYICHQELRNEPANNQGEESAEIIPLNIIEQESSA
T1 sequence (O60896 24-148 partner): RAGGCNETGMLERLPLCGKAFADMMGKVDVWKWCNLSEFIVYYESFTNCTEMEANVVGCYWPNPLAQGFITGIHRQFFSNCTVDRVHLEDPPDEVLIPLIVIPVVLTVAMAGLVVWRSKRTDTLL
Put plainly: cAMP assay for in vitro receptor activation, hAMY3-R. The format is cell-based. The note with it: cAMP assay, hAMY3 receptor; read-out: hAMY3R EC50. Summed up: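 Accumulated cAMP was detected by time-resolved FRET one hour after reagent addition. Beforehand, hAMY3-R-overexpressing monoclonal cells (2000/well, DPBS, 0.05% casein, 0.5 mM IBMX) received graded doses of compound for 30 min at room temperature; human amylin served as positive control.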

Experiment [2] addresses hAM1 receptor (Homo sapiens, UniProt O60895+Q16602). In words: cAMP assay for in vitro receptor activation, hAM1-R. The format is cell-based. The note with it: cAMP assay, hAM1 receptor; read-out: hAM1R EC50. Here is the method:
General Protocols for cAMP Assays for Measuring In Vitro Receptor Activation
Cells stably overexpressing the hAM1 receptor were obtained from Ogeda (now Astellas Pharma), sub-cloned and a monoclonal cell-line with an appropriate assay-window was expanded, aliquoted and frozen. An aliquot was thawed and plated in DPBS with 0.05% casein and 0.5 mM IBMX as 8000 cells/well in a 384-well format.
On the technique in general: cAMP levels reflect the balance of adenylyl cyclase and phosphodiesterase activity.

Chain of hAM1 receptor (Q16602 23-461): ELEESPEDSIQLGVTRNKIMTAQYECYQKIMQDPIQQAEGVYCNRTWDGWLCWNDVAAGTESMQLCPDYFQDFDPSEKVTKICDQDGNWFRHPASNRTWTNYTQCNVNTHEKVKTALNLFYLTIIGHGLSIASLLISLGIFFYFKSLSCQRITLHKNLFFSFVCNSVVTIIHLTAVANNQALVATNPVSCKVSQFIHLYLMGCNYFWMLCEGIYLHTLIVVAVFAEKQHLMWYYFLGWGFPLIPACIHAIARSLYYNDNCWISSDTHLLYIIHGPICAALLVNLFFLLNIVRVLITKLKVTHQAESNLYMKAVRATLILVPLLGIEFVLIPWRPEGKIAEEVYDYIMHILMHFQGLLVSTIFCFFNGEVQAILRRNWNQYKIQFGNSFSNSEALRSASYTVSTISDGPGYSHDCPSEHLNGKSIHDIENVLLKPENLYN
Chain of hAM1 receptor (O60895 43-175 partner): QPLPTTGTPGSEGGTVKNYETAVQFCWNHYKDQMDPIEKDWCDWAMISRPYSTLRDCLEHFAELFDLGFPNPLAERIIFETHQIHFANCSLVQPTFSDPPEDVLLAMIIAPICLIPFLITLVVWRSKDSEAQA

In general, EC50 refers to the midpoint of the concentration-response curve. Regarding `CC[C@H](C)[C@H](NC(=O)[C@H](C)NC(=O)CNC(=O)[C@H](Cc1ccccc1)NC(=O)[C@H](CC(N)=O)NC(=O)[C@H](CC(N)=O)NC(=O)[C@H](CO)NC(=O)[C@H](CO)NC(=O)[C@H](Cc1c[nH]cn1)NC(=O)[C@@H](NC(=O)[C@H](CC(C)C)NC(=O)[C@H](Cc1ccccc1)NC(=O)[C@H](CC(N)=O)NC(=O)[C@H](C)NC(=O)[C@H](CC(C)C)NC(=O)[C@H](CCCNC(=N)N)NC(=O)[C@H](CCC(N)=O)NC(=O)[C@@H](NC(=O)[C@H](C)NC(=O)[C@@H]1CSSC[C@H](NC(=O)[C@@H](N)CCCCN)C(=O)N[C@@H](CC(N)=O)C(=O)N[C@@H]([C@@H](C)O)C(=O)N[C@@H](C)C(=O)N[C@@H]([C@@H](C)O)C(=O)N1)[C@@H](C)O)C(C)C)C(=O)N[C@@H](CC(C)C)C(=O)N1CCC[C@H]1C(=O)N[C@@H](CCCNC(=N)N)C(=O)N[C@H](C(=O)N[C@@H](CCCCN)C(=O)N[C@H](C(=O)NCC(=O)N[C@@H](CO)C(=O)N[C@@H](CC(N)=O)C(=O)NCC(=O)N[C@@H](Cc1ccc(O)cc1)C(N)=O)C(C)C)[C@@H](C)O` [compound 19] (H-KCNTATCATQRLANFLVHSSNNFGAILPRTKVGSNGY-NH2; disulfide 2-7), the figures for the EC50 in experiment [1] and in experiment [2] were 0.008 nM and greater than 5000 nM, respectively.

Consider `CC[C@H](C)[C@H](NC(=O)[C@H](CCC(N)=O)NC(=O)[C@H](CC(N)=O)NC(=O)[C@H](C)NC(=O)[C@H](CC(C)C)NC(=O)[C@H](CCCNC(=N)N)NC(=O)[C@H](CCC(N)=O)NC(=O)[C@@H](NC(=O)[C@@H](NC(=O)[C@@H]1CSSC[C@H](NC(=O)[C@H](CCCCN)NC(=O)CC[C@H](NC(=O)CCCCCCCCCCCCCCCCCCC(=O)O)C(=O)O)C(=O)N[C@@H](CC(N)=O)C(=O)N[C@@H]([C@@H](C)O)C(=O)N[C@@H](C)C(=O)N[C@@H]([C@@H](C)O)C(=O)N1)[C@@H](C)O)C(C)C)C(=O)N[C@@H](Cc1ccc(O)cc1)C(=O)N[C@@H](CCC(N)=O)C(=O)N[C@@H](Cc1ccccc1)C(=O)N[C@H](C(=O)N[C@@H](CC(=O)O)C(=O)N[C@@H](CCCCN)C(=O)N[C@@H](CC(=O)O)C(=O)N[C@@H](CCCCN)C(=O)N[C@@H](CC(=O)O)C(=O)N[C@@H](CC(N)=O)C(=O)N[C@H](C(=O)N[C@@H](C)C(=O)N1CCC[C@H]1C(=O)N1CCC[C@H]1C(=O)N[C@H](C(=O)N[C@@H](CC(N)=O)C(=O)N[C@H](C(=O)NCC(=O)N[C@@H](CO)C(=O)N[C@@H](CC(N)=O)C(=O)NCC(=O)N1C[C@H](O)C[C@H]1C(N)=O)C(C)C)[C@@H](C)O)C(C)C)[C@@H](C)O` [compound 21] ({C20 diacid-γGlu}-KCNTATCTVQRLANQIYQFTDKDKDNVAPPTNVGSNG[Hyp]-NH2; disulfide 2-7), for which the figures for the EC50 in experiment [1] and in experiment [2] were 0.008 nM and greater than 5000 nM, respectively.

In the case of `CC[C@H](C)[C@H](NC(=O)[C@H](CCC(N)=O)NC(=O)[C@H](Cc1c[nH]cn1)NC(=O)[C@H](C)NC(=O)[C@H](CC(C)C)NC(=O)[C@H](CCCNC(=N)N)NC(=O)[C@H](CCC(N)=O)NC(=O)[C@@H](NC(=O)[C@@H](NC(=O)[C@@H]1CSSC[C@H](NC(=O)[C@H](CCCCN)NC(=O)CC[C@H](NC(=O)CCCCCCCCCCCCCCCCCCC(=O)O)C(=O)O)C(=O)N[C@@H](CC(N)=O)C(=O)N[C@@H]([C@@H](C)O)C(=O)N[C@@H](C)C(=O)N[C@@H]([C@@H](C)O)C(=O)N1)[C@@H](C)O)C(C)C)C(=O)N[C@H](C(=O)N[C@@H](CCC(N)=O)C(=O)N[C@@H](Cc1ccccc1)C(=O)N[C@H](C(=O)N[C@@H](CC(=O)O)C(=O)N[C@@H](CCCCN)C(=O)N[C@@H](CC(=O)O)C(=O)N[C@@H](CCCCN)C(=O)N[C@@H](CC(=O)O)C(=O)N[C@@H](CC(N)=O)C(=O)N[C@H](C(=O)N[C@@H](C)C(=O)N1CCC[C@H]1C(=O)N1CCC[C@H]1C(=O)N[C@H](C(=O)N[C@@H](CC(N)=O)C(=O)N[C@H](C(=O)NCC(=O)N[C@@H](CO)C(=O)N[C@@H](CC(N)=O)C(=O)NCC(=O)N1C[C@H](O)C[C@H]1C(N)=O)C(C)C)[C@@H](C)O)C(C)C)[C@@H](C)O)[C@@H](C)O` [compound 22] ({C20 diacid-γGlu}-KCNTATCTVQRLAHQITQFTDKDKDNVAPPTNVGSNG[Hyp]-NH2; disulfide 2-7), the results for the EC50 in experiment [1] and in experiment [2] were 0.008 nM and greater than 5000 nM, respectively.

For the molecule `CC[C@H](C)[C@H](NC(=O)[C@H](CCC(N)=O)NC(=O)[C@H](Cc1c[nH]cn1)NC(=O)[C@H](C)NC(=O)[C@H](CC(C)C)NC(=O)[C@H](CCCNC(=N)N)NC(=O)[C@H](CCC(N)=O)NC(=O)[C@@H](NC(=O)[C@@H](NC(=O)[C@@H]1CSSC[C@H](NC(=O)[C@@H](N)CCCCN)C(=O)N[C@@H](CC(N)=O)C(=O)N[C@@H]([C@@H](C)O)C(=O)N[C@@H](C)C(=O)N[C@@H]([C@@H](C)O)C(=O)N1)[C@@H](C)O)C(C)C)C(=O)N[C@@H](Cc1ccc(O)cc1)C(=O)N[C@@H](CCC(N)=O)C(=O)N[C@@H](Cc1ccccc1)C(=O)N[C@H](C(=O)N[C@@H](CC(=O)O)C(=O)N[C@@H](CCCCN)C(=O)N[C@@H](CC(=O)O)C(=O)N[C@@H](CCCCN)C(=O)N[C@@H](CC(=O)O)C(=O)N[C@@H](CC(N)=O)C(=O)N[C@H](C(=O)N1CCC[C@H]1C(=O)N1CCC[C@H]1C(=O)N[C@H](C(=O)N[C@@H](CC(N)=O)C(=O)N[C@H](C(=O)NCC(=O)N[C@@H](CO)C(=O)N[C@@H](CC(N)=O)C(=O)NCC(=O)N1C[C@H](O)C[C@H]1C(N)=O)C(C)C)[C@@H](C)O)C(C)C)[C@@H](C)O` [compound 30] (H-KCNTATCTVQRLAHQIYQFTDKDKDNVPPTNVGSNG[Hyp]-NH2; disulfide 2-7; N-terminus assumed), the EC50 in experiment [1] is 0.008 nM; in experiment [2], greater than 5000 nM.

For the molecule `CC[C@H](C)[C@H](NC(=O)[C@H](CCC(N)=O)NC(=O)[C@H](Cc1c[nH]cn1)NC(=O)[C@H](C)NC(=O)[C@H](CC(C)C)NC(=O)[C@H](CCCNC(=N)N)NC(=O)[C@H](CCC(N)=O)NC(=O)[C@@H](NC(=O)[C@@H](NC(=O)[C@@H]1CSSC[C@H](NC(=O)[C@@H](N)CCCCN)C(=O)N[C@@H](CC(N)=O)C(=O)N[C@@H]([C@@H](C)O)C(=O)N[C@@H](C)C(=O)N[C@@H]([C@@H](C)O)C(=O)N1)[C@@H](C)O)C(C)C)C(=O)N[C@@H](Cc1ccc(O)cc1)C(=O)N[C@@H](CCC(N)=O)C(=O)N[C@@H](Cc1ccccc1)C(=O)N[C@H](C(=O)N[C@@H](CC(=O)O)C(=O)N[C@@H](CCCCN)C(=O)N[C@@H](CC(=O)O)C(=O)N[C@@H](CCCCN)C(=O)N[C@@H](CC(=O)O)C(=O)N[C@@H](CC(N)=O)C(=O)N[C@H](C(=O)N[C@@H](C)C(=O)N1CCC[C@H]1C(=O)N[C@H](C(=O)N[C@@H](CC(N)=O)C(=O)N[C@H](C(=O)NCC(=O)N[C@@H](CO)C(=O)N[C@@H](CC(N)=O)C(=O)NCC(=O)N1C[C@H](O)C[C@H]1C(N)=O)C(C)C)[C@@H](C)O)C(C)C)[C@@H](C)O` [compound 31] (H-KCNTATCTVQRLAHQIYQFTDKDKDNVAPTNVGSNG[Hyp]-NH2; disulfide 2-7; N-terminus assumed), the results for the EC50 in experiment [1] and in experiment [2] were 0.008 nM and greater than 5000 nM, respectively.

On to `CC[C@H](C)[C@H](NC(=O)[C@H](CCC(N)=O)NC(=O)[C@H](CCC(=O)O)NC(=O)[C@H](C)NC(=O)[C@H](CC(C)C)NC(=O)[C@H](CCCNC(N)=O)NC(=O)[C@H](C)NC(=O)[C@@H](NC(=O)[C@@H](NC(=O)[C@@H]1CSSC[C@H](NC(=O)[C@@H](N)CCCNC(=N)N)C(=O)N[C@@H](CCC(N)=O)C(=O)N[C@@H](C)C(=O)N[C@@H](CO)C(=O)N[C@@H]([C@@H](C)O)C(=O)N1)[C@@H](C)O)C(C)C)C(=O)N[C@@H](C)C(=O)N[C@@H](CCC(N)=O)C(=O)N[C@@H](Cc1ccc(O)cc1)C(=O)N[C@H](C(=O)N[C@@H](CC(=O)O)C(=O)N[C@@H](CCCCN)C(=O)N[C@@H](CC(=O)O)C(=O)N[C@@H](CCCCN)C(=O)N[C@@H](CC(=O)O)C(=O)N[C@@H](CCC(N)=O)C(=O)N[C@H](C(=O)N[C@@H](C)C(=O)N1CCC[C@H]1C(=O)N1CCC[C@H]1C(=O)N[C@H](C(=O)N[C@@H](CCC(=O)O)C(=O)N[C@H](C(=O)NCC(=O)N1CCC[C@H]1C(=O)N[C@@H](CC(N)=O)C(=O)N[C@@H](CO)C(=O)N1C[C@H](O)C[C@H]1C(N)=O)C(C)C)[C@@H](C)O)C(C)C)[C@@H](C)O` [compound 33] (H-RCQASTCTVA[Cit]LAEQIAQYTDKDKDQVAPPTEVGPNS[Hyp]-NH2; disulfide 2-7; N-terminus assumed), for which the EC50 in experiment [1] is 0.008 nM; in experiment [2], greater than 5000 nM.
